Assay results from US10280197B2, “Discovery of the first selective C5A receptor 2 (C5L2/C5AR2) ligands” (The Regents of the University of California, priority 2015, dated 2019).

Legend:
[1] = system: ERK1/2 activation in HMDM; experiment: ERK1/2 phosphorylation assay (Alphascreen Surefire) in HMDM; type: cell-based, human; settings: for inhibition of C5a-induced ERK1/2 activation in HMDM: 30 min pre-incubation, then C5a 5 nM for 10 min; for direct ERK1/2 activation in HMDM: peptide alone
Protocol: FIG. 5 is a graph showing that P32 and P59 inhibit C5a-induced ERK1/2 activation in HMDM. pERK quantified by Surefire ERK1/2 kit. Data is normalised to C5a 5 nM (100%) for each donor. Data are representative of at least three independent experiments HMDM donors performed in triplicate (n=3-5). Error bars represent SEM. **** P<0.0001 by one-way ANOVA followed by Dunnett's post hoc test.
ERK1/2 phosphorylation assays were performed using the Alphascreen Surefire ERK1/2 kit (Perkin Elmer) as per manufacturers' instructions. Briefly, HMDM were seeded at 50 000 cells/well in 96-well tissue culture plates (Nunc, Waltham, Mass., USA) and serum starved overnight. Ligands were prepared in serum-free media. P32 and P59 were pre-incubated with cells for 30 min at 37° C. and 5% CO2, prior to the addition of C5a (5 nM) for 10 min at 37° C. and 5% CO2. Media was then removed and cells lysed with lysis buffer for 10 min on a shaker, 4 μL of lysate was transferred to a white 384-well proxiplate plate (Perkin Elmer) and incubated in the presence of 7 μL of reaction mix. The plate was sealed with TopSeal-A, incubated for 2 h at 37° C. and measured on an M1000Pro plate reader (Tecan, Mannedorf, Switzerland).

C5a1 = molecular target: T1, C5a1 (Homo sapiens, UniProt P21730); experiment: BRET β-arrestin 2 recruitment by C5a1 in HEK293 cells; type: cell-based; set-up: expressed in transfected cells; host or cells: HEK293 (transient); settings: P32 or P59 100 μM
T1 sequence (P21730 1-350): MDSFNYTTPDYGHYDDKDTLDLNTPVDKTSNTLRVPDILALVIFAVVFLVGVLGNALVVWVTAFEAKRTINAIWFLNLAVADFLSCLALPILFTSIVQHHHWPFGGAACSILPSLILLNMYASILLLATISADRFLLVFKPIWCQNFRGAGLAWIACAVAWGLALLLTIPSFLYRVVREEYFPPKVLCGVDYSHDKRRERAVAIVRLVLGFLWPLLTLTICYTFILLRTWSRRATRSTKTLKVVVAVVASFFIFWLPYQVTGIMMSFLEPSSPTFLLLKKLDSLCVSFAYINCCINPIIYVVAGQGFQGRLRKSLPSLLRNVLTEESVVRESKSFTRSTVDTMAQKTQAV
Protocol: Assays were performed as a ligand-induced BRET experiment similar to previously described^17, 31, 49. In brief, HEK293 cells were transiently transfected with either C5a1-Rluc8 and β-arrestin 2-Venus or C5a2-Venus and β-arrestin 2-Rluc8 or C5a1-Rluc8 and C5a2-Venus in a 100-mm dish. 24 h after transfection cells were collected and transferred to a 96-well white microplate (Corning, N.Y., USA) in phenol-red free DMEM containing 5% FBS and 25 mM HEPES (Life Technologies). Cells were allowed to settle for 24 h and then were incubated with 30 μM Enduren (Promega, Madison, Wis., USA) for 2 h at 37° C. and 5% CO2 to ensure that the substrate had reached equilibrium. Following incubation BRET baseline measurements were taken for 15 min then ligands were added to plate and BRET measurements were taken for a further 1 h at 37° C. using a POLARstar optima microplate reader (BMG Labtech, Ortenberg, Germany). Filtered light emissions were sequentially measured for 1 s in each of the following windows 460-490 nm and 520-550 nm, both before and following ligand addition. The ligand-induced BRET ratio was calculated by subtracting the ratio of 520-550 nm emission over the 460-490 nm emission for a vehicle-treated sample from a ligand-treated sample of the same aliquot of cells in triplicate. […]

LPS stimulated HMDM = experiment: Cytokine release from LPS stimulated HMDM (ELISA); type: cell-based, human; settings: for IL-6 release from LPS stimulated HMDM / IL-10 release from LPS stimulated HMDM / TNFα release from LPS stimulated HMDM: 24 h after co-stimulation with LPS 10 ng/ml, peptides 0.1-100 μM; for IL-6 release from LPS stimulated HMDM in the presence of PMX53: C5a1 antagonist PMX53 10 μM pre-incubated 30 min
Protocol: FIG. 4 is a panel of graphs showing the testing P32 and P59 for effects on cytokine release from LPS stimulated HMDM. Measurement of human inflammatory cytokines IL-6 (4A, 4B), TNFα (4C, 4D) and IL-10 (4E, 4F) release from HMDM, 24 h after co-stimulation with LPS (10 ngml^−1) and C5a (0.1-100 nM), P32 or P59 (0.1-100 μM) with or without C5a1 antagonist PMX53 (10 μM) present. Cytokine release was quantified by ELISA. Data is representative of five independent HMDM donors performed in triplicate (n=5). CTRL represents non-stimulated HMDM. Data is normalised to LPS response (100%) for each donor. Error bars represent SEM. *P<0.05, ** P<0.01, *** P<0.001, **** P<0.0001 by one-way ANOVA followed by Dunnett's post hoc test or Sidak's post hoc test for comparisons+/−PMX53.
Briefly, HMDMs were seeded in 96 well tissue culture plates (Nunc) at 100 000 cells/well and allowed to adhere overnight at 37° C. and 5% CO2. The next day HMDMs were stimulated with E. coli derived LPS (10 ng ml^−1) only or LPS (10 ng ml^−1) and either C5a or C5a2 ligands at various concentrations (1-100 nM (C5a) or 0.1-100 μM (C5a2 ligands)). For testing cytokine release in the presence of C5a1 antagonist (PMX53), cells were pre-incubated with PMX53 at 10 μM for 30 min prior to addition of C5a or C5a2 ligands. Following ligand addition HMDMs were returned to 37° C. and 5% CO2 incubator and 24 h after stimulation supernatant was removed from cells and transferred to 96 well polypropylene microplate (Nunc) and stored at −20° C. till needed for assay. Quantification of cytokine release was performed using ELISA kits (BD OptEIA™) as per manufacturers' instructions (BD Biosciences, San Jose, Calif., USA).

C5a2 = C5a2 (Homo sapiens, UniProt Q9P296); experiment: DiscoveRx PathHunter β-arrestin 2 recruitment, C5a2; type: cell-based; set-up: purchased DiscoveRx Corporation (Birmingham, UK); settings: 100 μM, data not shown
C5a2, sequence (Q9P296 whole entry): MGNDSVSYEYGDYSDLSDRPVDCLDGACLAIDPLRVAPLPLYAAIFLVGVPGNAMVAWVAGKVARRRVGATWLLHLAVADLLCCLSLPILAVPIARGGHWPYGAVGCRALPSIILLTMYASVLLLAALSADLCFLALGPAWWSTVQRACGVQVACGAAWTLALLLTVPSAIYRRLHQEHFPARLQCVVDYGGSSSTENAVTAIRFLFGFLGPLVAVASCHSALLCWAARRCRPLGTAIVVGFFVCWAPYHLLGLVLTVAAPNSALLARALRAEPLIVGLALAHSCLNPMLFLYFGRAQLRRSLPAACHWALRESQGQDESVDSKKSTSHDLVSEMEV

| ligand induced β-arrestin 2 recruitment at C5a2 (PathHunter) (C5a2) | Substance | inhibition of C5a-induced ERK1/2 activation in HMDM [1] | direct ERK1/2 activation in HMDM [1] | β-arrestin 2 recruitment via C5a1 (C5a1) | IL-6 release from LPS stimulated HMDM (LPS stimulated HMDM) | IL-10 release from LPS stimulated HMDM (LPS stimulated HMDM) | TNFα release from LPS stimulated HMDM (LPS stimulated HMDM) | IL-6 release from LPS stimulated HMDM in the presence of PMX53 (LPS stimulated HMDM) |
| --- | --- | --- | --- | --- | --- | --- | --- | --- |
| showed activity at C5a2 | Ac-RHYPYWR-OH [Peptide P32, Ac-RHYPYWR-OH] | significantly inhibit | Neither P32 or P59 could induce ERK1/2 activation alone | Neither, P32 or P59 could recruit β-arrestin 2 via C5a1 | significant inhibition of IL-6 release at two (10 and 100 μM) of the four doses tested | no effect | no effect | unaffected |
| showed activity at C5a2 | Ac-LIRLWR-OH [Peptide P59, Ac-LIRLWR-OH] | significantly inhibit | Neither P32 or P59 could induce ERK1/2 activation alone | Neither, P32 or P59 could recruit β-arrestin 2 via C5a1 | only showed significant inhibition of IL-6 at 100 μM | no effect | no effect | unaffected |
